# Measured values reported in patent publication US9884091B2, “Treatment of neurological diseases” (Lancaster University Business Enterprises Limited, priority 2014, dated 2018).
# How the values were obtained:
# APP/PS1 transgenic mice [1] = assay: Beta-amyloid plaque load in cortex by immunohistochemistry, transgenic Alzheimer's disease mouse model; format: in vivo; conditions: FIG. 1; 25 nmol/kg i.p. once daily for 8 weeks
# Text: (§1) Transgenic Alzheimer's Disease Mouse Model
# (§2) Animal models have been developed to test novel drugs. A standard model for Alzheimer's disease is transgenic mice that express human mutated genes for amyloid production that are known to induce Alzheimer's disease in humans. These APP/PS1 transgenic mice recapitulate some of the symptoms of Alzheimer's disease such as the aggregation of amyloid in the brain, memory loss and the loss of synapses (Radde et al., 2006).
# (§3) The APP/PS1 mice express human Swedish mutated APP and human mutated presenilin-1 which induce Alzheimer's Disease in humans.
# (§4) The dose of peptide tested was 25 nmol/kg body weight. The peptides were administered by a once-daily intraperitoneal injection for 8 weeks. Saline injections were administered as a control. Five animals per group were injected with a peptide or a saline control.
# (§5) Brain Tissue Analysis for Amyloid Plaques and Synapse Numbers in AD Mice
# (§6) Animals (5 per group) were perfused transcardially with 30 ml of ice-cold PBS and 30 ml of ice-cold 4% paraformaldehyde to postfix the brain. The brains were removed and placed in fresh 30% sucrose solution in PBS to cryoprotect tissue and cut at a thickness of 40 μm on a cryostat. Sections were chosen according to stereological rules, with the first section taken at random and every 5th section afterwards. Between 7 and 13 sections were analysed per brain. […]
# APP/PS1 transgenic mice [2] = assay: Synaptic densities (synaptophysin immunohistochemistry) in cortex, transgenic Alzheimer's disease mouse model; format: in vivo; conditions: FIG. 2; 25 nmol/kg i.p. once daily for 8 weeks
# Text: as §1, §2, §3, §4, §5, §6
# C57BL/6 mice given MPTP [3] = assay: Rotarod motor control test, MPTP Parkinson mouse model; format: in vivo; conditions: FIG. 3; 25 nmol/kg i.p. once daily
# Text: (§7) A standard model to induce Parkinson like symptoms in mice is the injection of the chemical (MPTP) (Li et al., 2009). This chemical impairs or kills neurons in the brain that produce dopamine. The mice develop motor impairments, and the dopaminergic neurons in the brain are reduced in numbers and function. The enzyme tyrosine hydroxylase (TH) is required to synthetise dopamine. A loss of TH signifies a loss of dopamine production (Harkavyi et al., 2008).
# (§8) Adult male C57BL/6 mice were given the dopaminergic toxin MPTP (20 mg/kg in 0.1 mL of PBS i.p. at 2-h intervals of 4 doses MPTP; Sigma) or vehicle (PBS). This treatment selectively affects dopaminergic neurons and induces Parkinson-like symptoms in mice.
# as §4
# Rotarod Motor Control Test
# The rotarod consists of a rotating pole that accelerates over time. Mice are placed on the rod, and motor skills are tested by accelerating the rotation. As the rotation increases, animals lose grip and fall on a cushion located below the rod. […] Each animal's endurance time was recorded, and the average was calculated. Data were analysed using a one-way ANOVA with post-hoc Bonferroni tests.
# C57BL/6 mice given MPTP [4] = assay: Open-field motor activity task, MPTP Parkinson mouse model; format: in vivo; conditions: FIG. 4; 25 nmol/kg i.p. once daily
# Text: as §7, §8, §4
# Open-Field Motor Activity Task
# Mice (6 per group) received a session of 5 min in the empty open-field (58 cm in diameter; 35 cm high walls) with painted grey walls and grey floor. […] Motor activity was recorded by total path length and travel speed. Data were analysed using two-way ANOVA with post-hoc tests.
# [5] = system: APP/PS1 mouse model of AD; conditions: 12 months old APP/PS1 mice; cited from earlier work
Substance,beta-amyloid plaque load in the cortex (% area positive for beta amyloid) (APP/PS1 transgenic mice [1]),"beta-amyloid plaque load, compared with single GIP or GLP-1 analogues (APP/PS1 transgenic mice [1])",synapse loss in the cortex (synaptic densities) (APP/PS1 transgenic mice [2]),impairment of motor skills induced by MPTP (rotarod endurance time) (C57BL/6 mice given MPTP [3]),impairment of motor activity induced by MPTP (C57BL/6 mice given MPTP [4]),amyloid plaque load [5],synaptic plasticity in area CA1 of the hippocampus and spatial memory formation [5]
"YXEGTFTSDYSIYLDKQAAXEFV[Cys-40 kDAPEG]WLLAGGPSSGAPPPS[Lys-γE-C16]-NH2 (YXEGTFTSDYSIYLDKQAAXEFVXWLLAGGPSSGAPPPSX; 40 kDa PEG on Cys24; Lys γGlu-C16; C-amide; GIP/GLP1 co-agonist peptide; VARIANT 2, 20 Xaa = amino-isobutyric acid; VARIANT 24 Xaa = Cys with a covalently linked PEG molecule having an average molecular weight of 40kDa; VARIANT 40 Xaa = lysine residue connected to gamma- glutamate and C16, wherein C16 is a saturated fatty acid or palmitate) [DA2, pegylated version of DA1, position 24 modified to cysteine, γ-Glu spacer linking the C16 fatty acid]",reduces beta-amyloid plaque load,superior to the single GIP or GLP-1 analogues,protected from synapse loss,protect mice from an impairment of motor skills,protect mice from an impairment of motor activity,,
D-Ala^2-GIP,,,,,,much reduced,unimpaired
